These results are taken from patent US12551565B2, “CD44 targeted multi-arm conjugate” (priority 2019, dated 2026).

For the assay, the system named is human small cell lung cancer cell NCI-H446. Put plainly: Xenograft model of human small cell lung cancer cell NCI-H446 in nude mice. It is filed as in vivo, BALB/c nude mice. Conditions: tail vein injection, QW×3, 6 mg·kg^−1. Background: In xenograft studies the graft and the host belong to different species.

`CCc1c2c(nc3ccc(OC(=O)N4CCC(N5CCCCC5)CC4)cc13)-c1cc3c(c(=O)n1C2)COC(=O)[C@]3(O)CC` [Irinotecan]: the “Relative tumor proliferation rate (% T/C)” value is 66.0%.
